# Reference: US7071232B1, “Small molecules that increase the conversion of food to body weight gain” (priority 1998, dated 2006)
# Values joined by “and” are separate entries in the source; they are usually repeats but may differ in a detail not shown here. Identical values can stand only once. Like-named read-outs stand apart in the source and are kept apart here.
# Tests used:
# [1] = tested on: Peterson×Hubbard male broiler chicks; conditions: in vivo
# [2] = tested on: Peterson×Hubbard male broiler chicks; conditions: in vivo; remark: listed apart in the source
# [3] = tested on: Avian x Ross broiler chicks; assay: Second experiment, less environmental stress: feed efficiency ratios through day 14; type: in vivo; conditions: for Feed efficiency ratio, MEAN: through day 14; for conversion of feed to weight vs saline (in words): day 14
compound,measurement,setting,value
NCCC(=O)NCCSSCCNC(=O)CCN [beta-alethine],Survival (% Alive),[1],96% and 100% and 99% and 98%
same,chicks died in one pen,[1],5
same,mortality rate,[1],0%
same,# dead from all causes of death (cumulative),[1]; sc,0
same,Survival (% Alive),[1]; sc,100%
same,Deliverable Weight Ratio,[2],1.367
same,"Deliverable Weight Ratio, % improvement vs negative control",[2],10.8%
same,Feed Efficiency,[2],1.298
same,"Feed Efficiency, % improvement vs negative control",[2],7.9%
same,"% decrease over saline control, saline #1",[3]; 2 pg in ovo vs saline in ovo #1,0.34%
same,"% decrease over saline control, saline #2",[3]; 2 pg in ovo vs saline in ovo #2,−0.34%
same,"Feed efficiency ratio, MEAN",[3]; 2 pg per bird in ovo,1.181
same,"Feed efficiency ratio, MEAN",[3]; 2 pg per bird sc,1.173
same,% decrease over saline control,[3]; 2 pg sc vs saline s.c. control,−0.89%
same,"% decrease over saline control, saline #1",[3]; 2 ng in ovo + fed in water (2 ng weekly) vs saline in ovo #1,2.39%
same,"% decrease over saline control, saline #2",[3]; 2 ng in ovo + fed in water (2 ng weekly) vs saline in ovo #2,1.73%
same,"Feed efficiency ratio, MEAN",[3]; 2 ng in ovo + fed in water (2 ng weekly),1.157
same,"% decrease over saline control, saline #1",[3]; 2 ng in ovo vs saline in ovo #1,3.21%
same,conversion of feed to weight vs saline (in words),[3]; 2 ng in ovo,significantly greater conversion of feed to weight
same,"Feed efficiency ratio, MEAN",[3]; 2 ng per bird in ovo,1.147
same,"Feed efficiency ratio, MEAN",[3]; 2 ng per bird sc,1.150
same,conversion of feed to weight vs saline (in words),"[3]; 2 ng s.c., not significant vs s.c. saline",significantly better than saline given in ovo
same,% decrease over saline control,[3]; 2 ng sc vs saline s.c. control,1.16%
same,average decrease in feed efficiency ratios,[3]; normal flock of Avian×Ross broiler chicks,about 4%
